# ± gives the expanded uncertainty stated by the source.
# What was measured:
# [1] = 101.33 kPa, Liquid
# [2] = relative permittivity at various frequencies (dimensionless); settings: 101.3 kPa, Liquid, Frequency=1 MHz, HP4284A LCR Meter with HP16452A measuring cell
mass density ([1]; 288.15 K) [kg/m3],mass density ([1]; 293.15 K) [kg/m3],mass density ([1]; 298.15 K) [kg/m3],mass density ([1]; 303.15 K) [kg/m3],mass density ([1]; 308.15 K) [kg/m3],mass density ([1]; 318.15 K) [kg/m3],mass density ([1]; 328.15 K) [kg/m3],relative permittivity ([2]; 288.15 K),relative permittivity ([2]; 293.15 K),relative permittivity ([2]; 298.15 K),relative permittivity ([2]; 303.15 K),relative permittivity ([2]; 308.15 K),relative permittivity ([2]; 318.15 K),relative permittivity ([2]; 328.15 K),Compound
752.44 ± 0.64,748.8 ± 0.65,745.19 ± 0.65,741.57 ± 0.66,737.93 ± 0.66,730.7 ± 0.67,723.32 ± 0.68,2.04 ± 0.04,2.03 ± 0.04,2.02 ± 0.04,2.02 ± 0.04,2.01 ± 0.04,2 ± 0.04,1.99 ± 0.04,CCCCCCCCCCCC [dodecane]
989.16 ± 0.76,984.16 ± 0.78,979.61 ± 0.8,974.85 ± 0.82,970.85 ± 0.84,960.67 ± 0.89,951.06 ± 0.94,7.88 ± 0.16,7.73 ± 0.15,7.58 ± 0.15,7.46 ± 0.15,7.33 ± 0.15,7.09 ± 0.14,6.88 ± 0.14,"COCCOCCOCCOC [2,5,8,11-tetraoxadodecane]"
721.77 ± 0.6,717.76 ± 0.6,713.77 ± 0.61,709.89 ± 0.61,706.2 ± 0.62,698.14 ± 0.63,690.14 ± 0.64,1.99 ± 0.04,1.99 ± 0.04,1.98 ± 0.04,1.97 ± 0.04,1.96 ± 0.04,1.95 ± 0.04,1.94 ± 0.04,CCCCCCCCC [nonane]

# Source: the NIST ThermoML archive (doi:10.1016/j.jct.2004.08.003)
